Test results taken from US20190136321A1, “USE OF TRANSLATIONAL PROFILING TO IDENTIFY TARGET MOLECULES FOR THERAPEUTIC TREATMENT” (The Regents of The University of California, priority 2013, published 2019).

Key:
[1] = system: YB1, MTA1, vimentin, and CD44; experiment: Western blot and qPCR of mTOR-sensitive invasion genes in PC3 cells; assay type: cell-based, human; details: starting at 6 hr of treatment
GFP-labeled PC3 cells = experiment: Real-time imaging of cell migration; assay type: cell-based, human; details: starting at 6 hr of treatment
Experimental: Real-time imaging of GFP-labeled PC3 cells was performed in poly-D-lysine-coated chamber cover glass slides (Lab-Tek). PC3 GFP cells were plated and allowed to adhere for 24 hr. Wells were wounded with a P200 pipette tip. The chamber slides were imaged with an IX81 Olympus wide-field fluorescence microscope equipped with a CO2- and temperature-controlled chamber and time-lapse tracking system. Images from DIC and GFP channels were taken every 2 min and processed using ImageJ and analyzed for cell migration with Manual Tracking, using local maximum centering correction to maintain a centroid xy coordinate for each cell per frame over time. Tracking data was subsequently processed with the Chemotaxis and Migration tool from ibidi to create xy coordinate plots, velocity, and distance measurements.

Pten^L/L mice = experiment: Pharmacological treatment of Pten^L/L mice (preclinical trial, prostate cancer); assay type: in vivo, mouse
Experimental: Pten^loxp/loxp and Pb-cre mice where obtained from Jackson Laboratories and Mouse Models of Human Cancers Consortium (MMHCC), respectively, and maintained in the C57BL/6 background. Mice were maintained under specific pathogen-free conditions, and experiments were performed in compliance with institutional guidelines as approved by the Institutional Animal Care and Use Committee of UCSF.
Weight measurements were taken every 3 days to monitor for toxicity. For the 28-day study, mice were imaged via […] at day 0 and day 28 in a 14-T GE MR scanner (GE Healthcare).
Whole mouse prostates were removed from wild-type and Pten^L/L mice, microdissected, and frozen in liquid nitrogen. Frozen tissues were subsequently manually disassociated using a biopulverizer (Biospec) and additionally processed for protein and mRNA analysis as described above.
Prostates and lymph nodes were dissected from mice within 2 hr of the indicated treatment and fixed in 10% formalin overnight at 4° C. Tissues were subsequently dehydrated in ethanol (Sigma) at room temperature, mounted into paraffin blocks, and sectioned at […] Specimens were de-paraffinized and rehydrated using CitriSolv (Fisher) followed by serial ethanol washes. […] Sections were washed in distilled water followed by TBS washes. The sections were then incubated in 5% goat serum, 1% BSA in TBS for 1 hr at room temperature. Various primary antibodies were used, including those specific for keratin 5 (Covance), cytokeratin 8 (Abcam and Covance), YB1 (Abcam), vimentin (Abcam), MTA1 (Cell signaling), CD44 (BD Pharmingen), and the androgen receptor (Epitomics), which were diluted 1:50-1:500 in blocking solution and incubated on sections overnight at 4° C. Specimens were then washed in TBS and incubated with the appropriate Alexa 488 and 594 labeled secondary (Invitrogen) at 1:500 for 2 hr at room temperature, with the exception of YB1 which was incubated with biotinylated anti-rabbit secondary (Vector) followed by incubation with Alexa 594 labeled Streptavidin (Invitrogen). A final set of washes in TBS was completed at room temperature followed by mounting with DAPI Hardset Mounting Medium (Vector Lab). A Zeiss Spinning Disc confocal (Zeiss, CSU-X1) was used to image the sections at 40×-100×. Individual prostate cells were quantified for mean fluorescence intensity (m.f.i.) using the Axiovision (Zeiss, Release 4.8) densitometric tool.
Mouse lymph nodes were processed as described above and stained for CK8 and androgen receptor. Lymph nodes were imaged using a Zeiss AX10 microscope. Metastases were identified and areas were measured using the Axiovision (Zeiss, Release 4.8) measurement tool.
Immunohistochemistry was performed as described above (see “Immunofluorescence”) with the exception that immediately after antigen […] and TBS washes, specimens were incubated in 3% hydrogen peroxide in TBS followed by TBS washes. The following primary antibodies were used: phospho-AKT^S473 (Cell Signaling), phospho-rpS6^S240/244 (Cell Signaling), phospho-4EBP1^T37/46 (Cell Signaling), phospho-histone H3 (Upstate), and cleaved caspase (Cell Signaling). This was followed by TBS washes and incubation with the appropriate biotinylated secondary antibody (Vector Lab) for 30 min at room temperature. An ABC-HRP Kit (Vector Lab) was used to amplify the signal, followed by a brief incubation in hydrogen peroxide. The protein of interest was detected using DAB (Sigma). Specimens were counterstained with haematoxylin (Thermo Scientific), dehydrated with Citrisolv (Fisher), and mounted with Cytoseal XYL (Vector Lab).
Paraffin-embedded prostate specimens were deparaffinized and rehydrated as described above (see “Immunofluorescence”), stained with haematoxylin (Thermo Scientific), and washed with water. This was followed by a brief incubation in differentiation RTU (VWR) and two washes with water followed by two 70% ethanol washes. […]

LNCaP and A498 cells = experiment: Apoptosis analysis (Annexin V/PI); assay type: cell-based, human; details: 200 nM, 48 hours
From the text: Appropriately treated LNCaP and A498 cells were labeled with Annexin V-FITC (BD Biosciences) and propidium iodide (Sigma) following the manufacturer's instructions. PI/Annexin data was acquired using a BD FACS Caliber (BD Biosciences) and analyzed with FlowJo (v.9.1).

[2] = system: MDA-MB-361, SKOV3 and ACHN cells; experiment: Western blot and qPCR of 4-gene invasion signature in metastatic cell lines; assay type: cell-based, human; details: MDA-MB-361, SKOV3, ACHN cells, 48-hour treatment, 200 nM
Experimental: Western blot analysis was performed as previously described (Hsieh et al., Cancer Cell 17:249-261 (2010)) with antibodies specific to phospho-AKT^S473 (Cell Signaling), AKT (Cell Signaling), phospho-p70S6K^T389 (Cell Signaling), phospho-rpS6^S240/244 (Cell Signaling), rpS6 (Cell Signaling), phospho-4EBP1^T37/46 (Cell Signaling), 4EBP1 (Cell Signaling), 4EBP2 (Cell Signaling), YB1 (Cell Signaling), CD44 (Cell Signaling), LEF1 (Cell Signaling), PTEN (Cell Signaling), eEF2 (Cell Signaling), GAPDH (Cell Signaling), vimentin (BD Biosciences), eIF4E (BD Biosciences), Flag (Sigma), β-actin (Sigma), MTA1 (Santa Cruz Biotechnology), Twist (Santa Cruz Biotechnology), rpL28 (Santa Cruz Biotechnology), HA (Covance) and rictor (Bethyl Laboratory).
RNA was isolated using the manufacturer's protocol for RNA extraction with TRIzol Reagent (Invitrogen) using the Pure Link RNA mini kit (Invitrogen). RNA was DNase-treated with Pure Link Dnase (Invitrogen). DNase-treated RNA was transcribed to cDNA with SuperScript III First-Strand Synthesis System for RT-PCR (Invitrogen), and 1 μl of cDNA was used to run a SYBR green detection qPCR assay (SYBR Green Supermix and MyiQ2, Biorad). Primers were used at 200 nM.

[3] = Pten^L/L mice, ATP site inhibitor of mTOR 1 mg/kg daily, RAD001 10 mg/kg daily

CC(C)n1nc(-c2ccc3oc(N)nc3c2)c2c(N)ncnc21 [ATP site inhibitor of mTOR]
expression of YB1, MTA1, vimentin, and CD44 at the protein but not transcript level [1]: selective decrease | cancer cell migration (GFP-labeled PC3 cells): inhibited | prostate cancer volume (Pten^L/L mice; Pten^L/L mice, 1 mg/kg daily, 28-day treatment, MRI): marked reduction | decrease in prostatic intraepithelial neoplasia (PIN) lesions (Pten^L/L mice; Pten^L/L mice, 1 mg/kg daily, 28 days): 50% | 4EBP1 and p70S6K1/2 phosphorylation (Pten^L/L mice; Pten^L/L mice, 28 days, ATP site inhibitor of mTOR 1 mg/kg daily, RAD001 10 mg/kg daily): completely restored to wild-type levels | progression of invasive prostate cancer locally in the prostate gland (Pten^L/L mice; Pten^L/L mice, 60 days of treatment): completely blocked | total number and size of distant metastases (Pten^L/L mice; Pten^L/L mice, draining lymph nodes, 60 days of treatment): profoundly inhibited | apoptosis (cleaved caspase 3) (Pten^L/L mice; [3]): tenfold increase | proliferation (phospho-histone H3) (Pten^L/L mice; [3]): decreased | expression of YB1, vimentin, CD44, and MTA1 at the protein, but not transcript, level (Pten^L/L mice; specific epithelial cell types within pre-invasive PIN lesions in Pten^L/L mice): marked decrease | programmed cell death in multiple cancer cell lines (LNCaP and A498 cells): induced | 4-gene invasion signature response in metastatic cell lines [2]: responsive
